In patent US8188312B2, “Acyclic sulfamide derivatives” (Fundacion Imabis. Instituto Mediterraneo para el Avance de …, priority 2006, dated 2012):
“Also recorded” adds a separate entry of the source.

How the values were obtained:
human PPARα = biological target: T1, human PPARα (Homo sapiens, UniProt Q07869); assay: Luciferase reporter gene assay (RGA) in transfected MCF-7 cells; format: cell-based; details: for induction of the basal level of PPARα on the PPRE (relative luciferase activity): endogenous coregulator levels, 10 μM WY14643, 1 μM OEA and analogs; for induction of the basal level of PPARα on the PPRE (relative luciferase activity) / induction of luciferase activity with overexpression of TIF2: MCF-7 cells, 16 h; for activation of PPARα (receptor-mediated transcription): summary statement; for induction of luciferase activity with overexpression of TIF2: TIF2 cotransfected, 1 μM
T1 construct: expressed in transfected cells; host or cells: MCF-7 human breast cancer cells, transiently transfected (DOTAP)
T1 sequence (Q07869 1-468): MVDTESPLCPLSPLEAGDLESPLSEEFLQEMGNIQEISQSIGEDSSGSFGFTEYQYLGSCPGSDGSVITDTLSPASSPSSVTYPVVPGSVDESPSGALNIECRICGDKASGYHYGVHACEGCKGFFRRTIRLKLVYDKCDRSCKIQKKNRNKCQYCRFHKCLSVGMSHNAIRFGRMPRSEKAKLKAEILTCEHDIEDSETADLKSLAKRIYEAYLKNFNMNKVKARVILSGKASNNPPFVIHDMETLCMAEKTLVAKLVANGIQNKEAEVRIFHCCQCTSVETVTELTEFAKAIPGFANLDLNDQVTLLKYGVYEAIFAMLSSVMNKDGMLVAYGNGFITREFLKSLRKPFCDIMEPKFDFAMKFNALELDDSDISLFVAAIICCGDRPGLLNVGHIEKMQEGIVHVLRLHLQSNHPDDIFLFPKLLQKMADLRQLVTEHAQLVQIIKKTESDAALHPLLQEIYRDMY
Method: FIG. 2: Agonistic action of OEA and analogs. Luciferase reporter gene assays were performed with extracts from MCF-7 cells that were transiently transfected with a luciferase reporter construct containing three copies of the human ACO of PPRE. (A) Wild type human PPARα expression vector was also cotransfected as indicated. Cells were treated for 16 h with solvent (DMSO), and different concentrations (*10^−8, *10^−7, **10^−6 and **10^−5 M) of OEA, compound 2, or *10^−7, **10^−6 and **10^−5 M of anandamide (AEA, used as a negative control), 7 (*10^−8, *10^−7, **10^−6 and **10^−5 M) and 12 (*10^−7, **10^−6 and **10^−5 M). (*p<0.05, (**) p<0.01 vs vehicle, #p<0.01 vs vehicle and without ACO) (B) Wild type human PPARα expression as well as plasmids coding full length TIF2 were also cotransfected as indicated. Cells were treated for 16 h with solvent (DMSO), 10 μM WY14643, 1 μM OEA and its analogs 2, 7 and 12. Relative luciferase activities were measured in reference to solvent-induced cells not overexpressing any protein. Columns represent the mean of at least three experiments and bars indicate SD. (*p<0.01 vs vehicle, #p<0.01 vs vehicle and without TIF2).
Breast cancer human cells MCF-7 were seeded in a 6-well culture plate (10^5 cells/mL) and cultured in a Dulbecco modified Eagle medium (DMEM) free from phenol red, supplied with 5% of fetal bovine serum (FBS) treated with carbon (Macias-Gonzalez, M et al. Mol. End. 17 (2003): 2028).
The liposomes with DNA plasmids were obtained by incubation of 1 μg of the reporter plasmid with luciferase and the wild type human PPAR-α expression vector with 10 μg of N-1-(2,3-dioleyloxi)-propyl-N,N,N-trimethylammonium (DOTAP from Roche Diagnostics) for 15 minutes at room temperature in a total volume of 100 μL. After the dilution with 900 μL of DMEM free from phenol red, the liposomes were added to the cells. 4-5 h after the transfection of the cells, the DMEM free from phenol red supplemented with 500 μL of FBS treated with carbon at 15% was added, in this case with the PPAR-α ligands (OEA, AEA and sulfamides derivatives) or control solvents (DMSO) at different concentrations of 10^−8, 10^−7, 10^−6 and 10^−5 M.
The cells were lysed 16 hours after the beginning of the stimulation with the reporter gene lysis buffer (Roche Diagnostics) and the reporter gene assay or RGA luciferase of constant luminous signal was carried out following the manufactures recommendations (Roche Diagnostics). The luciferase activities were standardized with regard to the protein concentration and the induction factors were calculated as the ratio of luciferase activity of ligand stimulated cells in relation to the solvent controls (Vaisanen, S. et al. Mol. Pharmacol. 62 (2002):788).

[1] = Food intake study: acute treatment in food-deprived rats; format: in vivo, male Wistar rats; details: i.p., rats food-deprived 24 h; 30, 60, 120 and 240 min
Method: FIG. 3: Activity of OEA analogs as feeding suppressants. Food intake in food-deprived animals was tested 30, 60, 120 and 240 min after the i.p injection of the different compounds synthesized at different doses. Here we show results for compounds 2 (A), 7 (B), 12 (C), 19 (D) and 20 (E). […] Results are means±SEM of at least three determinations per group. (*) p<0.05, (**) p<0.01, (***) p<0.001, versus vehicle, ANOVA.
The effects of the different compounds on feeding behaviour were analyzed in male Wistar rats deprived of food for 24 hours, which were accustomed to its manipulation (Navarro, M et al. 1996 J. Neurochem. 67 (1996):1982. Rodriguez de Fonseca, F. et al. Nature 414 (2001):209. Fu, J et al. Nature, 425 (2003):90). For this aim, 48 hours before every assay rats were set out in single cages, the base material (sand or sawdust) was removed and little food containers were set out into the cage for 4 hours. After this initial phase, animals were deprived of food for 24 hours, always with free access to water. After 24 hours of fast, different treatment groups were established (N=8-10 every group) and different doses of the sulfamide corresponding to each experimental session were administrated i.p. in their vehicle solution in a volume of 1 mL/kg, as well as a control group only treated with the vehicle: • 1) Group treated with a 0.03 mg/kg dose of the sulfamide in vehicle solution. • 2) Group treated with a […] dose of the sulfamide in vehicle. • 3) Group with a 3 mg/kg dose of the corresponding sulfamide in vehicle. • 4) Control group treated with the vehicle tween-80 at 5% in physiological serum.
15 minutes after the administration, the containers with a known food amount (normally 30-40 g) and a bottle of fresh water were placed. These containers were weighted 30, 60, 120 and 240 minutes after their presentation, so that the food ingested by each animal was controlled.

[2] = Food intake studies: chronic treatment, body weight and plasma triglycerides; format: in vivo, male Wistar rats
Method: (§1) FIG. 4: Effects of chronic treatment with 7 (N-octadecyl-N′-propylsulfamide) on body weight gain and plasma triglycerides. […] Results are means±SEM of at least three determinations per group. (*) p<0.05, versus vehicle, ANOVA.
A chronic treatment with the compounds was carried out using male Wistar rats which were accustomed to its manipulation.
For this aim, rats were set out in single cages keeping the base material (sand or sawdust). After an adaptation phase to the conditions of the husbandry where the assay was carried out, three different groups (N=8 every group) were established according to the received treatment: • 1) Group treated with example 6 in its vehicle solution with a 1 mg/kg dose. • 2) Group treated with tween-80 vehicle at 5% in physiological serum. • 3) Control group treated with physiological serum.
The total duration of the experiment was eight days, with two i.p. daily administrations (injected volume of 1 mL/kg) of the different solutions with an interval of 12 hours between both injections. Everyday and previously to the administration at 8:00, each animal was weighted. During the total time of the assay, the single weight of each animal and the biochemical parameters in serum were daily controlled.

[3] = Subchronic treatment in genetically obese Zucker rats; format: in vivo; details: 11 days, 1 mg/kg i.p. daily
From the text: as §1
To further explore the anti-obesity properties of this compound, we used an additional animal model of obesity.

[4] = cited from earlier work
[5] = 8 days, 1 mg/kg i.p., normal rats, vs vehicle, 1 mg/kg

Cc1cccc(Nc2cc(Cl)nc(SCC(=O)O)n2)c1C [WY14643, reference compound]
induction of the basal level of PPARα on the PPRE (relative luciferase activity) (human PPARα): ~6 times

CCCCCCCCCCCCCCNS(=O)(=O)NCCC [Compound 9, N-propyl-N′-tetradecylsulfamide]
melting point: 105 to 107 °C

CCCCCCCCCCCCCCCCCCNS(=O)(=O)NCCC [Compound 7, N-octadecyl-N′-propylsulfamide]
induction of the basal level of PPARα on the PPRE (relative luciferase activity) (human PPARα): ~6 times | activation of PPARα (receptor-mediated transcription) (human PPARα): potent activator of PPARα | food intake / feeding behaviour [1]: potent feeding suppressant | body weight [2, 5]: reduces body weight | plasma triglycerides [2, 5]: marked reduction in plasma triglycerides; also recorded: reduces | active dose ([2]; i.p.): 1 mg/kg | food intake [3]: reduced | body weight gain (cumulative relative weight gain) ([3]; 1 mg/kg): reduced body weight gain; also recorded: reduces cumulative relative weight gain | melting point: 110 to 112 °C

CCCCCCCC/C=C\CCCCCCCCNS(N)(=O)=O [Compound 1, N-(cis-9-octadecenyl)sulfamide]
melting point: 68 to 70 °C

CCCCCCCCCCCCCCCCNS(N)(=O)=O [Compound 3, N-hexadecylsulfamide]
melting point: 102 to 104 °C

CCCCCCCCCCCCCCCCCCNS(N)(=O)=O [Compound 2, N-octadecylsulfamide]
induction of luciferase activity with overexpression of TIF2 (human PPARα): did not provide significantly higher induction | induction of the basal level of PPARα on the PPRE (relative luciferase activity) (human PPARα): did not provide induction | activation of PPARα (receptor-mediated transcription) (human PPARα): did not activate PPAR receptor-mediated transcription; also recorded: does not activate PPARα | food intake / feeding behaviour [1]: clearly reduced food intake; also recorded: reduces feeding behaviour | melting point: 105 to 107 °C

CCCCCCCC/C=C\CCCCCCCC(=O)NCCO [OEA]
induction of the basal level of PPARα on the PPRE (relative luciferase activity) (human PPARα): ~6 times | dose at which hypolipemiant effects are present ([4]; described in the literature): greater than 5 mg/kg | food intake (literature finding) ([4]; through activation of the nuclear receptor PPARα): decrease food intake

CCCCCCCC/C=C\CCCCCCCCNS(=O)(=O)NCCC
melting point: 82 to 83 °C

CCCCCCCCCCCCCCNS(N)(=O)=O [Compound 4, N-tetradecylsulfamide]
melting point: 99 to 101 °C

CCCCCCCCCCCCCCCCNS(=O)(=O)NCCC [Compound 8, N-hexadecyl-N′-propylsulfamide]
melting point: 108 to 110 °C

CCCNS(=O)(=O)NC12CC3CC(CC(C3)C1)C2 [Compound 12, N-propyl-N′-adamantylsulfamide]
induction of luciferase activity with overexpression of TIF2 (human PPARα): did not provide significantly higher induction | induction of the basal level of PPARα on the PPRE (relative luciferase activity) (human PPARα): did not provide induction | activation of PPARα (receptor-mediated transcription) (human PPARα): neither activates PPARα | food intake / feeding behaviour [1]: nor suppress food intake
